Laboratory results published in patent publication US9211310B2, “Use of a Chinese medicine composition in preparing medicaments for treating secondary prevention of myocardial infarction” (TASLY PHARMACEUTICAL GROUP CO., LTD, priority 2010, dated 2015).

System: patients after acute myocardial infarction
Test: TCM symptom score, total and single (chest pain, chest tightness, short breath, fatigue, palpitation, spontaneous perspiration, pale complexion), same clinical trial
Format: in vivo, human
Set-up: total score of TCM symptom, Mean / total score of TCM symptom, Min / total score of TCM symptom, Max / total score of TCM symptom, Md / change of total score of TCM symptom, Mean / change of total score of TCM symptom, Max / change of total score of TCM symptom, Md: scale not given here
Conditions: FAS
From the text: 3508 patients who were in accordance with the diagnostic standards of AMI for 28 days to 2 years and differentiated as Qi deficiency and blood stagnation syndrome by TCM were studied. 0.5 g Chinese medicine composition prepared by the method of EXAMPLE 1 (Coded as QSYQ) was administrated half an hour after meal, 3 times per day.
They included the overall survival time, angina pectoris score, TCM symptom score and life quality score, where angina pectoris score, TCM symptom score and life quality score were evaluated at randomization, in 1st, 3rd, 6th, 9th, 12th month after treatment and 18th month after follow-up.
The analysis method referred to the angina pectoris score.

[1] = 1 month after treatment-baseline
[2] = 3 month after treatment-baseline

Q: With `CC(=O)Oc1ccccc1C(=O)O` [Control group, aspirine] as the compound, how does the “total score of TCM symptom, Max” value (1 month after treatment) read?
A: 34.00

Q: What about the “total score of TCM symptom, Md” value (1 month after treatment) of the same compound?
A: 11.00

Q: And the “total score of TCM symptom, Mean” value (1 month after treatment)?
A: 11.84

Q: What about the “total score of TCM symptom, Min” value (1 month after treatment) of the same compound?
A: 0.00

Q: And the “change of fatigue 0, % of patients” value [1]?
A: (72.40%)

Q: And the “change of fatigue 0, number of patients” value [1]?
A: 1238

Q: What about the “change of fatigue 1, % of patients” value [1] of the same compound?
A: (0.06%)

Q: What about the “change of fatigue 1, number of patients” value [1] of the same compound?
A: 1

Q: And the “change of fatigue 2, % of patients” value [1]?
A: (17.72%)

Q: And the “change of fatigue 2, number of patients” value [1]?
A: 303

Q: What about the “change of fatigue 4, % of patients” value [1] of the same compound?
A: (2.63%)

Q: And the “change of fatigue 4, number of patients” value [1]?
A: 45

Q: And the “change of fatigue 6, % of patients” value [1]?
A: (0.76%)

Q: What about the “change of fatigue 6, number of patients” value [1] of the same compound?
A: 13

Q: What about the “change of fatigue −2, % of patients” value [1] of the same compound?
A: (5.73%)

Q: What about the “change of fatigue −2, number of patients” value [1] of the same compound?
A: 98

Q: What about the “change of fatigue −4, % of patients” value [1] of the same compound?
A: (0.64%)

Q: And the “change of fatigue −4, number of patients” value [1]?
A: 11

Q: And the “change of fatigue −6, % of patients” value [1]?
A: (0.06%)

Q: What about the “change of fatigue −6, number of patients” value [1] of the same compound?
A: 1

Q: What about the “change of pale complexion 0, number of patients” value [1] of the same compound?
A: 1477

Q: And the “change of pale complexion 0, percent of patients” value [1]?
A: (86.48%)

Q: And the “change of pale complexion 1, number of patients” value [1]?
A: 166

Q: What about the “change of pale complexion 1, percent of patients” value [1] of the same compound?
A: (9.72%)

Q: What about the “change of pale complexion −1, number of patients” value [1] of the same compound?
A: 65

Q: And the “change of pale complexion −1, percent of patients” value [1]?
A: (3.81%)

Q: And the “change of palpitation 0, number of patients” value [1]?
A: 1242

Q: What about the “change of palpitation 0, percent of patients” value [1] of the same compound?
A: (72.63%)

Q: What about the “change of palpitation 1, number of patients” value [1] of the same compound?
A: 334

Q: And the “change of palpitation 1, percent of patients” value [1]?
A: (19.53%)

Q: And the “change of palpitation 2, number of patients” value [1]?
A: 25

Q: What about the “change of palpitation 2, percent of patients” value [1] of the same compound?
A: (1.46%)

Q: What about the “change of palpitation 3, number of patients” value [1] of the same compound?
A: 5

Q: And the “change of palpitation 3, percent of patients” value [1]?
A: (0.29%)

Q: And the “change of palpitation −1, number of patients” value [1]?
A: 103

Q: And the “change of palpitation −1, percent of patients” value [1]?
A: (6.02%)

Q: What about the “change of palpitation −2, number of patients” value [1] of the same compound?
A: 1

Q: And the “change of palpitation −2, percent of patients” value [1]?
A: (0.06%)

Q: And the “change of palpitation −3, number of patients” value [1]?
A: 0

Q: And the “change of palpitation −3, percent of patients” value [1]?
A: (0.00%)

Q: What about the “change of short breath 0, % of patients” value [1] of the same compound?
A: (77.37%)

Q: And the “change of short breath 0, number of patients” value [1]?
A: 1323

Q: And the “change of short breath 2, % of patients” value [1]?
A: (14.74%)

Q: And the “change of short breath 2, number of patients” value [1]?
A: 252

Q: And the “change of short breath 4, % of patients” value [1]?
A: (1.75%)

Q: What about the “change of short breath 4, number of patients” value [1] of the same compound?
A: 30

Q: What about the “change of short breath 6, % of patients” value [1] of the same compound?
A: (0.41%)

Q: And the “change of short breath 6, number of patients” value [1]?
A: 7

Q: And the “change of short breath −2, % of patients” value [1]?
A: (5.26%)

Q: What about the “change of short breath −2, number of patients” value [1] of the same compound?
A: 90

Q: What about the “change of short breath −4, % of patients” value [1] of the same compound?
A: (0.47%)

Q: And the “change of short breath −4, number of patients” value [1]?
A: 8

Q: And the “change of short breath −6, % of patients” value [1]?
A: (0.00%)

Q: What about the “change of short breath −6, number of patients” value [1] of the same compound?
A: 0

Q: What about the “change of spontaneous perspiration 0, number of patients” value [1] of the same compound?
A: 1249

Q: What about the “change of spontaneous perspiration 0, percent of patients” value [1] of the same compound?
A: (73.08%)

Q: And the “change of spontaneous perspiration 1, number of patients” value [1]?
A: 279

Q: What about the “change of spontaneous perspiration 1, percent of patients” value [1] of the same compound?
A: (16.33%)

Q: And the “change of spontaneous perspiration 2, number of patients” value [1]?
A: 51

Q: What about the “change of spontaneous perspiration 2, percent of patients” value [1] of the same compound?
A: (2.98%)

Q: And the “change of spontaneous perspiration 3, number of patients” value [1]?
A: 16

Q: What about the “change of spontaneous perspiration 3, percent of patients” value [1] of the same compound?
A: (0.94%)

Q: What about the “change of spontaneous perspiration −1, number of patients” value [1] of the same compound?
A: 94

Q: And the “change of spontaneous perspiration −1, percent of patients” value [1]?
A: (5.50%)

Q: What about the “change of spontaneous perspiration −2, number of patients” value [1] of the same compound?
A: 17

Q: What about the “change of spontaneous perspiration −2, percent of patients” value [1] of the same compound?
A: (0.99%)

Q: And the “change of spontaneous perspiration −3, number of patients” value [1]?
A: 3

Q: And the “change of spontaneous perspiration −3, percent of patients” value [1]?
A: (0.18%)

Q: And the “change of total score of TCM symptom, Max” value [1]?
A: 24.00

Q: And the “change of total score of TCM symptom, Md” value [1]?
A: 0.00

Q: And the “change of total score of TCM symptom, Mean” value [1]?
A: −1.96

Q: And the “change of total score of TCM symptom, Min” value [1]?
A: −33.00

Q: What about the “change of total score of TCM symptom, Max” value [2] of the same compound?
A: 19.00

Q: What about the “change of total score of TCM symptom, Md” value [2] of the same compound?
A: −2.00

Q: What about the “change of total score of TCM symptom, Mean” value [2] of the same compound?
A: −2.91

Q: And the “change of total score of TCM symptom, Min” value [2]?
A: −33.00

Q: What about the “distribution of total score of TCM symptom: Medium, number of patients” value (3 months after treatment) of the same compound?
A: 546

Q: What about the “distribution of total score of TCM symptom: Medium, percentage of patients” value (3 months after treatment) of the same compound?
A: (33.58%)

Q: And the “distribution of total score of TCM symptom: Mild, number of patients” value (3 months after treatment)?
A: 1066

Q: What about the “distribution of total score of TCM symptom: Mild, percentage of patients” value (3 months after treatment) of the same compound?
A: (65.56%)

Q: What about the “distribution of total score of TCM symptom: Severe, number of patients” value (3 months after treatment) of the same compound?
A: 14

Q: What about the “distribution of total score of TCM symptom: Severe, percentage of patients” value (3 months after treatment) of the same compound?
A: (0.86%)

Q: And the “fatigue score 0, % of patients” value (3 months after treatment)?
A: (27.96%)

Q: What about the “fatigue score 0, number of patients” value (3 months after treatment) of the same compound?
A: 480

Q: What about the “fatigue score 2, % of patients” value (3 months after treatment) of the same compound?
A: (59.76%)

Q: And the “fatigue score 2, number of patients” value (3 months after treatment)?
A: 1026

Q: And the “fatigue score 4, % of patients” value (3 months after treatment)?
A: (11.47%)

Q: What about the “fatigue score 4, number of patients” value (3 months after treatment) of the same compound?
A: 197

Q: And the “fatigue score 6, % of patients” value (3 months after treatment)?
A: (0.82%)

Q: And the “fatigue score 6, number of patients” value (3 months after treatment)?
A: 14

Q: What about the “pale complexion score 0, number of patients” value (3 months after treatment) of the same compound?
A: 809

Q: What about the “pale complexion score 0, percent of patients” value (3 months after treatment) of the same compound?
A: (47.12%)

Q: What about the “pale complexion score 1, number of patients” value (3 months after treatment) of the same compound?
A: 677

Q: And the “pale complexion score 1, percent of patients” value (3 months after treatment)?
A: (39.43%)

Q: What about the “pale complexion score 2, number of patients” value (3 months after treatment) of the same compound?
A: 210

Q: What about the “pale complexion score 2, percent of patients” value (3 months after treatment) of the same compound?
A: (12.23%)

Q: What about the “pale complexion score 3, number of patients” value (3 months after treatment) of the same compound?
A: 21

Q: And the “pale complexion score 3, percent of patients” value (3 months after treatment)?
A: (1.22%)

Q: And the “palpitation score 0, number of patients” value (3 months after treatment)?
A: 480

Q: What about the “palpitation score 0, percent of patients” value (3 months after treatment) of the same compound?
A: (27.96%)

Q: What about the “palpitation score 2, number of patients” value (3 months after treatment) of the same compound?
A: 894

Q: And the “palpitation score 2, percent of patients” value (3 months after treatment)?
A: (52.07%)

Q: What about the “palpitation score 4, number of patients” value (3 months after treatment) of the same compound?
A: 310

Q: What about the “palpitation score 4, percent of patients” value (3 months after treatment) of the same compound?
A: (18.05%)

Q: And the “palpitation score 6, number of patients” value (3 months after treatment)?
A: 33

Q: What about the “palpitation score 6, percent of patients” value (3 months after treatment) of the same compound?
A: (1.92%)

Q: What about the “short breath score 0, % of patients” value (3 months after treatment) of the same compound?
A: (21.78%)

Q: What about the “short breath score 0, number of patients” value (3 months after treatment) of the same compound?
A: 374

Q: And the “short breath score 3, % of patients” value (3 months after treatment)?
A: (58.94%)

Q: What about the “short breath score 3, number of patients” value (3 months after treatment) of the same compound?
A: 1012

Q: And the “short breath score 6, % of patients” value (3 months after treatment)?
A: (18.52%)

Q: What about the “short breath score 6, number of patients” value (3 months after treatment) of the same compound?
A: 318

Q: And the “short breath score 9, % of patients” value (3 months after treatment)?
A: (0.76%)

Q: What about the “short breath score 9, number of patients” value (3 months after treatment) of the same compound?
A: 13

Q: And the “spontaneous perspiration score 0, number of patients” value (3 months after treatment)?
A: 667

Q: And the “spontaneous perspiration score 0, percent of patients” value (3 months after treatment)?
A: (38.85%)

Q: What about the “spontaneous perspiration score 1, number of patients” value (3 months after treatment) of the same compound?
A: 846

Q: And the “spontaneous perspiration score 1, percent of patients” value (3 months after treatment)?
A: (49.27%)

Q: And the “spontaneous perspiration score 2, number of patients” value (3 months after treatment)?
A: 190

Q: What about the “spontaneous perspiration score 2, percent of patients” value (3 months after treatment) of the same compound?
A: (11.07%)

Q: And the “spontaneous perspiration score 3, number of patients” value (3 months after treatment)?
A: 14

Q: And the “spontaneous perspiration score 3, percent of patients” value (3 months after treatment)?
A: (0.82%)

Q: What about the “total score of TCM symptom, Max” value (3 months after treatment) of the same compound?
A: 33.00
